Patent publication US20250295639A1, “METHODS FOR TREATING HEART DISEASES” (Cytokinetics, Incorporated, priority 2024, published 2025)

Legend:
[1] = test system: patients with symptomatic oHCM; experiment: SEQUOIA-HCM cardiovascular magnetic resonance (CMR) substudy; assay type: in vivo, human
Text: A further exploratory objective of this trial was to evaluate the effect of aficamten on left ventricular mass, function, and structure by cardiac magnetic resonance (CMR) imaging, as determined by changes from baseline to Week 24 in CMR measurements of left ventricular (LV) mass index, LVEF, septal and free wall thickness, left […] volume index, LVESV, and LVEDV. Cardiac Magnetic Resonance. A CMR imaging sub-study assessed the effects of administration of aficamten dosing on cardiac morphology, function, and fibrosis in approximately 40 oHCM patients who were eligible and consented to participate. CMR was performed during screening period and Week 24. […] Effect of Aficamten on Cardiac Structure and Function in Patients with Obstructive Hypertrophic Cardiomyopathy. For some patients with HCM, adverse remodeling of cardiac structure and function occur over time and are associated with increased risk of adverse events, including heart failure, sudden death and atrial fibrillation. Eligible participants enrolled in SEQUOIA-HCM (the study of Example 8), were offered enrolment in the cardiovascular magnetic resonance (CMR) substudy with CMR performed at baseline and at Week 24. Image analysis was performed in a blinded fashion by a core laboratory.

[2] = test system: patients with symptomatic oHCM; experiment: SEQUOIA-HCM: EQ-5D-5L index and Visual Analogue Scale quality of life; assay type: in vivo, human
Text: A further exploratory objective of this trial was to evaluate the effect of aficamten on health status and health-related quality of life as measured by PRO questionnaire, as determine by changes from baseline to Week 24 in individual responses to the EuroQol 5-dimension 5-level instrument (EQ-5D-5L). Improved exercise capacity, disease-specific quality-of-life (QoL), and hemodynamics in patients with obstructive hypertrophic cardiomyopathy (oHCM). Participants underwent blinded dose escalation over 6 weeks and were treated for 24 weeks followed by 4-week washout. EQ-5D-5L index (ranges from 0 to 1) and the Visual Analogue Scale (VAS; from 0 to 100) was measured at baseline and weeks 0, 2, 4, 8, 12, 16, 20, 24, with higher scores indicating better QoL. Aficamten treatment effect on EQ-5D-5L was estimated using linear regression (specific study visits) and mixed effects regression (overall treatment effect) using all follow-up data through week 24, with model adjustments for baseline EQ-5D-5L score and randomization stratification variables.

[3] = CMR Cohort N = 57 (Aficamten N = 25), Baseline
[4] = CMR Cohort N = 57 (Aficamten N = 25), Week 24
[5] = CMR Measurements, CMR Cohort N = 57 (Aficamten N = 25), Baseline
[6] = CMR Measurements, CMR Cohort N = 57 (Aficamten N = 25), Week 24
[7] = CMR Measurements, CMR Cohort N = 57, vs placebo
[8] = Echo Measurements, CMR Cohort N = 57 (Aficamten N = 25), Baseline
[9] = Echo Measurements, CMR Cohort N = 57 (Aficamten N = 25), Week 24
[10] = Echo Measurements, CMR Cohort N = 57, vs placebo
[11] = baseline to week 24, vs placebo
[12] = overall treatment effect through week 24

Compound: CCc1nc(-c2ccc3c(c2)CC[C@H]3NC(=O)c2cnn(C)c2)no1 [aficamten, (R)—N-(5-(5-ethyl-1,2,4-oxadiazol-3-yl)-2,3-dihydro-1H-inden-1-yl)-1-methyl-1H-pyrazole-4-carboxamide]
- LGE (% of LV mass) (CMR) ([1]; Baseline, N = 21): 2.0 % of LV mass
- LGE Mass (CMR) ([1]; Baseline, N = 21): 3.2 g
- Mitral Regurgitation Fraction (CMR) ([1]; Baseline, N = 21): 24%
- Mitral Regurgitation Volume (CMR) ([1]; Baseline, N = 21): 22 mL
- NT-proBNP, median ([1]; Baseline, N = 21): 708 pg/mL
- NYHA Class II, patients ([1]; Baseline, N = 21): 67%
- NYHA Class III, patients ([1]; Baseline, N = 21): 33%
- Absolute myocyte mass index (CMR) ([1]; Baseline, N = 21, mean ± SD): 84 ± 25 g/m^2
- Echo LVOT Gradient at Rest ([1]; Baseline, N = 21, mean ± SD): 55 ± 32 mm Hg
- Echo LVOT Gradient with Valsalva ([1]; Baseline, N = 21, mean ± SD): 85 ± 45 mm Hg
- LA Volume Index (CMR) ([1]; Baseline, N = 21, mean ± SD): 68 ± 19 mL/m^2
- LV Ejection Fraction (CMR) ([1]; Baseline, N = 21, mean ± SD): 77.4 ± 5.6%
- LV End Diastolic Volume Index (CMR) ([1]; Baseline, N = 21, mean ± SD): 67 ± 15 mL/m^2
- LV End Systolic Volume Index (CMR) ([1]; Baseline, N = 21, mean ± SD): 15.3 ± 5.9 mL/m^2
- LV Extracellular Volume Fraction (CMR) ([1]; Baseline, N = 21, mean ± SD): 26.7 ± 2.7%
- LV Mass Index (CMR) ([1]; Baseline, N = 21, mean ± SD): 113 ± 33 g/m^2
- LV Maximal Wall Thickness (CMR) ([1]; Baseline, N = 21, mean ± SD): 19.3 ± 4.3 mm
- LV Native T1 (CMR) ([1]; Baseline, N = 21, mean ± SD): 1066 ± 121 ms
- LV extracellular volume mass index (CMR) ([1]; Baseline, N = 21, mean ± SD): 31 ± 10 %/g/m^2
- Peak oxygen consumption, pVO2 ([1]; Baseline, N = 21, mean ± SD): 20.1 ± 4.4 mL/kg/min
- NT-proBNP, median [1, 3]: 708 pg/mL
- Peak oxygen consumption, pVO2 [1, 3]: 19.8 ± 4.7 mL/kg/min
- Improvement in NYHA by ≥1 FC, n (%) [1, 4]: 15 (60.0) n (%)
- NT-proBNP, median [1, 4]: 81 pg/mL
- Peak oxygen consumption, pVO2 [1, 4]: 21.0 ± 4.9 mL/kg/min
- Improvement in NYHA by ≥1 FC, Treatment Effect, OR ([1]; CMR Cohort N = 57, Week 24, vs placebo): OR 3.00
- NT-proBNP, Treatment Effect ([1]; CMR Cohort N = 57, vs placebo): -85 pg/mL
- Peak oxygen consumption, pVO2, Treatment Effect ([1]; CMR Cohort N = 57, vs placebo): 1.2 mL/kg/min
- LA Volume Index [1, 5]: 68 ± 19 mL/m^2
- LV Ejection Fraction [1, 5]: 77.4 ± 5.6%
- LV Mass Index [1, 5]: 113 ± 33 g/m^2
- LV Maximal Wall Thickness [1, 5]: 19.3 ± 4.3 mm
- LA Volume Index [1, 6]: 52 ± 14 mL/m^2
- LV Ejection Fraction [1, 6]: 73.8 ± 5.9%
- LV Mass Index [1, 6]: 103 ± 28 g/m^2
- LV Maximal Wall Thickness [1, 6]: 17.8 ± 4.5 mm
- LA Volume Index, Treatment Effect [1, 7]: −13 mL/m^2
- LV Ejection Fraction, Treatment Effect [1, 7]: −2.6%
- LV Mass Index, Treatment Effect [1, 7]: −15 g/m^2
- LV Maximal Wall Thickness, Treatment Effect [1, 7]: −2.1 mm
- NT-proBNP, change relative to placebo ([1]; CMR substudy patients, Week 24): −85%
- echocardiographic Valsalva LVOT-G, Δ least squares mean relative to placebo ([1]; CMR substudy patients, Week 24): −50 mm Hg
- echocardiographic resting LVOT-G, Δ least squares mean relative to placebo ([1]; CMR substudy patients, Week 24): −46 mm Hg
- LA Volume Index [1, 8]: 40 ± 11 mL/m^2
- LV Ejection Fraction [1, 8]: 74.3 ± 4.7%
- LV Mass Index [1, 8]: 126 ± 22 g/m2
- LV Maximal Wall Thickness [1, 8]: 20.6 ± 2.7 mm
- LVOT gradient at rest [1, 8]: 55 ± 30 mmHg
- LVOT gradient with Valsalva [1, 8]: 84 ± 42 mmHg
- LA Volume Index [1, 9]: 39 ± 10 mL/m^2
- LV Ejection Fraction [1, 9]: 68.2 ± 7.8%
- LV Maximal Wall Thickness [1, 9]: 18.7 ± 3.1 mm
- LVOT gradient at rest [1, 9]: 25 ± 25 mmHg
- LVOT gradient with Valsalva [1, 9]: 38 ± 30 mmHg
- LA Volume Index, Treatment Effect [1, 10]: −1 mL/m^2
- LV Ejection Fraction, Treatment Effect [1, 10]: −3.6%
- LV Mass Index, Treatment Effect [1, 10]: −10 g/m2
- LV Maximal Wall Thickness, Treatment Effect [1, 10]: −1.5 mm
- LVOT gradient at rest, Treatment Effect [1, 10]: −38 mmHg
- LVOT gradient with Valsalva, Treatment Effect [1, 10]: −47 mmHg
- CMR LV end-diastolic and end-systolic volumes ([1]; Week 24): no significant change
- CMR LV mass index, Δ least squares mean relative to placebo ([1]; Week 24): −15 g/m^2
- CMR left atrial volume index, Δ least squares mean relative to placebo ([1]; Week 24): −13 mL/m^2
- CMR maximal LV wall thickness, Δ least squares mean relative to placebo ([1]; Week 24): −2.1 mm
- CMR native Tl relaxation time, Δ least squares mean relative to placebo ([1]; Week 24): -37 ms
- LV extracellular volume fraction [ECV] ([1]; Week 24): 0.7%
- LV replacement fibrosis, late gadolinium enhancement [LGE] mass ([1]; Week 24): -0.7 g
- LGE (% of LV mass) (CMR) ([1]; Week 24, N = 21): 1.4 % of LV mass
- LGE Mass (CMR) ([1]; Week 24, N = 21): 1.5 g
- Mitral Regurgitation Fraction (CMR) ([1]; Week 24, N = 21): 13%
- Mitral Regurgitation Volume (CMR) ([1]; Week 24, N = 21): 12 mL
- NT-proBNP, median ([1]; Week 24, N = 21): 79 pg/mL
- NYHA Class I, patients ([1]; Week 24, N = 21): 57%
- NYHA Class II, patients ([1]; Week 24, N = 21): 29%
- NYHA Class III, patients ([1]; Week 24, N = 21): 14%
- Absolute myocyte mass index (CMR) ([1]; Week 24, N = 21, mean ± SD): 75 ± 22 g/m^2
- Echo LVOT Gradient at Rest ([1]; Week 24, N = 21, mean ± SD): 21 ± 18 mm Hg
- Echo LVOT Gradient with Valsalva ([1]; Week 24, N = 21, mean ± SD): 35 ± 26 mm Hg
- LA Volume Index (CMR) ([1]; Week 24, N = 21, mean ± SD): 52 ± 14 mL/m^2
- LV Ejection Fraction (CMR) ([1]; Week 24, N = 21, mean ± SD): 73.8 ± 5.9%
- LV End Diastolic Volume Index (CMR) ([1]; Week 24, N = 21, mean ± SD): 60 ± 11 mL/m^2
- LV End Systolic Volume Index (CMR) ([1]; Week 24, N = 21, mean ± SD): 16.0 ± 5.1 mL/m^2
- LV Extracellular Volume Fraction (CMR) ([1]; Week 24, N = 21, mean ± SD): 27.4 ± 7.1%
- LV Mass Index (CMR) ([1]; Week 24, N = 21, mean ± SD): 103 ± 28 g/m^2
- LV Maximal Wall Thickness (CMR) ([1]; Week 24, N = 21, mean ± SD): 17.8 ± 4.5 mm
- LV Native T1 (CMR) ([1]; Week 24, N = 21, mean ± SD): 1021 ± 93 ms
- LV extracellular volume mass index (CMR) ([1]; Week 24, N = 21, mean ± SD): 29 ± 12 %/g/m^2
- Peak oxygen consumption, pVO2 ([1]; Week 24, N = 21, mean ± SD): 21.1 ± 4.7 mL/kg/min
- Absolute myocyte mass index (CMR), Treatment Effect (95% CI) [1, 11]: −14 (−23, −4) g/m^2
- Echo LVOT Gradient at Rest, Treatment Effect [1, 11]: −46 mm Hg
- Echo LVOT Gradient with Valsalva, Treatment Effect [1, 11]: −50 mm Hg
- LA Volume Index (CMR), Treatment Effect [1, 11]: −13 mL/m^2
- LGE (% of LV mass) (CMR), Treatment Effect (95% CI) [1, 11]: −0.4 (−2.1, 1.2) % of LV mass
- LGE Mass (CMR), Treatment Effect (95% CI) [1, 11]: −0.7 (−2.9, 1.6) g
- LV Ejection Fraction (CMR), Treatment Effect [1, 11]: −2.6%
- LV End Diastolic Volume Index (CMR), Treatment Effect [1, 11]: −1 mL/m^2
- LV End Systolic Volume Index (CMR), Treatment Effect [1, 11]: 1.4 mL/m^2
- LV Extracellular Volume Fraction (CMR), Treatment Effect (95% CI) [1, 11]: 0.7 (−2.2, 3.6) %
- LV Mass Index (CMR), Treatment Effect [1, 11]: −15 g/m^2
- LV Maximal Wall Thickness (CMR), Treatment Effect [1, 11]: −2.1 mm
- LV Native T1 (CMR), Treatment Effect (95% CI) [1, 11]: −37 (−69, −5) ms
- LV extracellular volume mass index (CMR), Treatment Effect [1, 11]: −3.9 %/g/m^2
- Mitral Regurgitation Fraction (CMR), Treatment Effect [1, 11]: −6%
- Mitral Regurgitation Volume (CMR), Treatment Effect [1, 11]: -7 mL
- NT-proBNP, Treatment Effect [1, 11]: −85%
- Peak oxygen consumption, pVO2, Treatment Effect [1, 11]: 1.0 mL/kg/min
- Treatment Effect ≥1 NYHA Class Improvement [1, 11]: 36%
- QoL after treatment withdrawal at 24 weeks compared with placebo ([2]; Index and VAS): worsened
- improvement of EQ-5D-5L VAS versus placebo [2, 12]: 2.8 points
- improvement of EQ-5D-5L index versus placebo [2, 12]: 0.026
